Reference: patent US20260226493A1, “HERBICIDE RESISTANT PLANTS” (SYNGENTA CROP PROTECTION AG, priority 2023, published 2026)

Tested on: Arabidopsis thaliana BIO3-BIO1 (BioDA) mutants
Assay: BIO3-BIO1 mutant enzyme activity in the presence of herbicide, percentage inhibition (fluorometric DAPA assay)
Assay type: biochemical
Procedure, shortened: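 His-tagged Arabidopsis BIO3-BIO1 mutants, expressed in E. coli and purified by IMAC and SEC, were preincubated at 50 nM with herbicide for 10 min at 20 °C in EPPS pH 8.6 with pyridoxal phosphate. Reaction with 100 μM spermidine and 20 μM KAPA ran 75 min at 20 °C; DAPA was derivatised with o-phthalaldehyde and read at ex 410/em 470 nm. […].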

CCn1c(Cn2ccc(C(F)(F)F)n2)cc(=O)c(C(=O)O)c1-c1ccc(Cl)c(Cl)c1 [Compound L, 2-(3,4-dichlorophenyl)-1-ethyl-4-oxo-6-[[3-(trifluoromethyl)pyrazol-1-yl]methyl]pyridine-3-carboxylic acid]
percentage inhibition (variant Q517F, 0.01 μM): 0% | percentage inhibition (variant Q517F, 0.075 μM): 17% | percentage inhibition (variant Q517F, 0.5 μM): 54% | percentage inhibition (variant Q517H, 0.01 μM): 0% | percentage inhibition (variant T393V, 0.01 μM): 9% | percentage inhibition (variant T393V, 0.075 μM): 19% | percentage inhibition (variant T393V, 0.5 μM): 65% | percentage inhibition (variant T512C, 0.01 μM): 0% | percentage inhibition (variant T512C, 0.075 μM): 18% | percentage inhibition (variant T512C, 0.5 μM): 69% | percentage inhibition (variant T512D, 0.01 μM): 24% | percentage inhibition (variant T512D, 0.075 μM): 23% | percentage inhibition (variant T512D, 0.5 μM): 58% | percentage inhibition (variant T512G, 0.01 μM): 0% | percentage inhibition (variant T512G, 0.075 μM): 0% | percentage inhibition (variant T512G, 0.5 μM): 20% | percentage inhibition (variant T512I, 0.01 μM): 2% | percentage inhibition (variant T512I, 0.075 μM): 15% | percentage inhibition (variant T512I, 0.5 μM): 29% | percentage inhibition (variant T512N, 0.01 μM): 15% | percentage inhibition (variant T512N, 0.075 μM): 37% | percentage inhibition (variant T512N, 0.5 μM): 76% | percentage inhibition (variant T512Q, 0.01 μM): 3% | percentage inhibition (variant T512Q, 0.075 μM): 35% | percentage inhibition (variant T512Q, 0.5 μM): 74% | percentage inhibition (variant T512R, 0.01 μM): 27% | percentage inhibition (variant T512R, 0.075 μM): 61% | percentage inhibition (variant T512R, 0.5 μM): 91% | percentage inhibition (variant T512V, 0.01 μM): 33% | percentage inhibition (variant T512V, 0.075 μM): 57% | percentage inhibition (variant T512V, 0.5 μM): 83% | percentage inhibition (variant T512W, 0.01 μM): 18% | percentage inhibition (variant T512W, 0.075 μM): 0% | percentage inhibition (variant T512W, 0.5 μM): 31% | percentage inhibition (variant V354A, 0.01 μM): 6% | percentage inhibition (variant V354A, 0.075 μM): 0% | percentage inhibition (variant V354A, 0.5 μM): 47% | percentage inhibition (variant V354E, 0.01 μM): 4% | percentage inhibition (variant V354E, 0.075 μM): 19% | percentage inhibition (variant V354E, 0.5 μM): 35% | percentage inhibition (variant V354L, 0.01 μM): 0% | percentage inhibition (variant V354L, 0.075 μM): 16% | percentage inhibition (variant V354L, 0.5 μM): 63% | percentage inhibition (variant V354T, 0.01 μM): 0% | percentage inhibition (variant V354T, 0.075 μM): 7% | percentage inhibition (variant V354T, 0.5 μM): 89% | percentage inhibition (variant W391L, 0.01 μM): 24% | percentage inhibition (variant W391L, 0.075 μM): 10% | percentage inhibition (variant W391L, 0.5 μM): 16% | percentage inhibition (variant W391M, 0.01 μM): 0% | percentage inhibition (variant W391M, 0.075 μM): 16% | percentage inhibition (variant W391M, 0.5 μM): 30% | percentage inhibition (variant W392C, 0.01 μM): 2% | percentage inhibition (variant W392C, 0.075 μM): 12% | percentage inhibition (variant W392C, 0.5 μM): 13% | percentage inhibition (variant W392D, 0.01 μM): 19% | percentage inhibition (variant W392D, 0.075 μM): 59% | percentage inhibition (variant W392D, 0.5 μM): 85% | percentage inhibition (variant W392G, 0.01 μM): 0% | percentage inhibition (variant W392G, 0.075 μM): 2% | percentage inhibition (variant W392G, 0.5 μM): 0% | percentage inhibition (variant W392M, 0.01 μM): 0% | percentage inhibition (variant W392M, 0.075 μM): 10% | percentage inhibition (variant W392M, 0.5 μM): 8% | percentage inhibition (variant W392S, 0.01 μM): 0% | percentage inhibition (variant W392S, 0.075 μM): 3% | percentage inhibition (variant W392S, 0.5 μM): 0% | percentage inhibition (variant Y511C, 0.01 μM): 0% | percentage inhibition (variant Y511C, 0.075 μM): 3% | percentage inhibition (variant Y511C, 0.5 μM): 44% | percentage inhibition (variant Y511D, 0.01 μM): 20% | percentage inhibition (variant Y511D, 0.075 μM): 29% | percentage inhibition (variant Y511D, 0.5 μM): 51% | percentage inhibition (variant Y511E, 0.01 μM): 0% | percentage inhibition (variant Y511E, 0.075 μM): 0% | percentage inhibition (variant Y511E, 0.5 μM): 33% | percentage inhibition (variant Y511F, 0.01 μM): 48% | percentage inhibition (variant Y511F, 0.075 μM): 65% | percentage inhibition (variant Y511F, 0.5 μM): 86% | percentage inhibition (variant Y511I, 0.01 μM): 21% | percentage inhibition (variant Y511I, 0.075 μM): 27% | percentage inhibition (variant Y511I, 0.5 μM): 28% | percentage inhibition (variant Y511M, 0.01 μM): 0% | percentage inhibition (variant Y511M, 0.075 μM): 27% | percentage inhibition (variant Y511M, 0.5 μM): 76% | percentage inhibition (variant Y511P, 0.01 μM): 10% | percentage inhibition (variant Y511P, 0.075 μM): 26% | percentage inhibition (variant Y511P, 0.5 μM): 63% | percentage inhibition (variant Y511Q, 0.01 μM): 0% | percentage inhibition (variant Y511Q, 0.075 μM): 6% | percentage inhibition (variant Y511Q, 0.5 μM): 28% | percentage inhibition (variant Y511R, 0.01 μM): 15% | percentage inhibition (variant Y511R, 0.075 μM): 7% | percentage inhibition (variant Y511R, 0.5 μM): 34% | percentage inhibition (variant Y511V, 0.01 μM): 0% | percentage inhibition (variant Y511V, 0.075 μM): 5% | percentage inhibition (variant Y511V, 0.5 μM): 49% | percentage inhibition (variant Y511W, 0.01 μM): 11% | percentage inhibition (variant Y511W, 0.075 μM): 22% | percentage inhibition (variant Y511W, 0.5 μM): 50%

CCOC(=O)c1nn(-c2ccc3c(c2)OC(F)(F)C(F)(F)O3)c2cccc(C(C)=O)c2c1=O [Compound A, ethyl 5-acetyl-4-oxo-1-(2,2,3,3-tetrafluoro-1,4-benzodioxin-6-yl)cinnoline-3-carboxylate]
percentage inhibition (variant Q517M, 1 μM): 38% | percentage inhibition (variant W392A, 1 μM): 53%
